Laboratory results published in PubChem BioAssay (NCI).
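Cells were grown in 96-well plates and exposed to each compound for 48 hours at five concentrations; endpoints were interpolated linearly between bracketing concentrations, or set to the highest concentration if not reached. TGI: concentration producing complete growth inhibition.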

What was measured:
Assay in all cases: NCI-60 cell line screen, 48 h
[1] = system: SK-MEL-2 melanoma
[2] = system: HCT-15 colon
[3] = system: SF-539 CNS
[4] = system: EKVX NSCLC
[5] = system: IGROV1 ovarian
[6] = system: SN12C renal
[7] = system: SF-268 CNS
[8] = system: COLO 205 colon
[9] = system: CAKI-1 renal
[10] = system: UACC-62 melanoma
[11] = system: A549 NSCLC
[12] = system: UO-31 renal
[13] = system: MDA-N
[14] = system: OVCAR-5 ovarian
[15] = system: CCRF-CEM leukemia
[16] = system: U251 CNS
[17] = system: HL-60(TB) leukemia
[18] = system: SF-295 CNS
[19] = system: UACC-257 melanoma
[20] = system: 786-0 renal
[21] = system: NCI-H226 lung
[22] = system: HCT-116 colon
[23] = system: MALME-3M melanoma
[24] = system: RPMI-8226 leukemia
[25] = system: MCF7 breast
[26] = system: K-562 leukemia
[27] = system: SW-620 colon
[28] = system: OVCAR-3 ovarian
[29] = system: HS 578T breast
[30] = system: RXF 393 renal
[31] = system: M14 melanoma
[32] = system: OVCAR-4 ovarian
[33] = system: KM12 colon
[34] = system: SK-MEL-28 melanoma
[35] = system: BT-549 breast
[36] = system: NCI-H460 lung
[37] = system: ACHN renal
[38] = system: HOP-92 NSCLC
[39] = system: LOX IMVI melanoma
[40] = system: HT29 colon
[41] = system: NCI-H23 lung
[42] = system: NCI-H522 lung
[43] = system: HOP-62 NSCLC
[44] = system: NCI/ADR-RES ovarian
[45] = system: MDA-MB-435
[46] = system: HCC-2998 colon
[47] = system: MDA-MB-231 breast
[48] = system: DU-145 prostate
[49] = system: SR leukemia
[50] = system: MOLT-4 leukemia
[51] = system: SK-MEL-5 melanoma
[52] = system: SNB-19 CNS
[53] = system: SK-OV-3 ovarian
[54] = system: OVCAR-8 ovarian
[55] = system: PC-3 prostate
[56] = system: TK-10 renal
[57] = system: SNB-75 CNS
[58] = system: A498 renal
[59] = system: T-47D breast

In the case of `CC(CCOc1c2ccoc2cc2oc(=O)ccc12)C1=CC(=O)C(C)(C)O1` (stereo unspecified), the TGI [1] is reported as > 100 µM, the TGI [2] is reported as > 100 µM and the TGI [3] is reported as > 100 µM. For the same molecule, the TGI [4] was > 100 µM, the TGI [5] was > 100 µM and the TGI [6] was > 100 µM. For the same molecule, the TGI [7] was > 100 µM, the TGI [8] was > 100 µM and the TGI [9] was > 100 µM. The TGI [10] was > 100 µM, the TGI [11] was > 100 µM and the TGI [12] was > 100 µM. For the same molecule, the TGI [13] was > 100 µM, the TGI [14] was > 100 µM and the TGI [15] was > 100 µM. For the same molecule, the TGI [16] was > 100 µM, the TGI [17] was > 100 µM and the TGI [18] was > 100 µM. For the same molecule, the TGI [19] was > 100 µM, the TGI [20] was > 100 µM and the TGI [21] was > 100 µM. The TGI [22] was > 100 µM, the TGI [23] was > 100 µM and the TGI [24] was > 100 µM. The TGI [25] was > 100 µM, the TGI [26] was > 100 µM and the TGI [27] was > 100 µM. For the same molecule, the TGI [28] was > 100 µM, the TGI [29] was > 100 µM and the TGI [30] was > 100 µM. For the same molecule, the TGI [31] was > 100 µM, the TGI [32] was > 100 µM and the TGI [33] was > 100 µM. The TGI [34] was > 100 µM, the TGI [35] was > 100 µM and the TGI [36] was > 100 µM. For the same molecule, the TGI [37] was > 100 µM, the TGI [38] was > 100 µM and the TGI [39] was > 100 µM. The TGI [40] was > 100 µM, the TGI [41] was > 100 µM and the TGI [42] was 71.3 µM. The TGI [43] was > 100 µM, the TGI [44] was > 100 µM and the TGI [45] was > 100 µM. The TGI [46] was > 100 µM, the TGI [47] was > 100 µM and the TGI [48] was > 100 µM. The TGI [49] was > 100 µM, the TGI [50] was > 100 µM and the TGI [51] was > 100 µM. The TGI [52] was > 100 µM, the TGI [53] was > 100 µM and the TGI [54] was > 100 µM. For the same molecule, the TGI [55] was > 100 µM and the TGI [56] was > 100 µM.

`CC1(F)C=CC(=O)C=C1` was tested, and the TGI [1] was > 100 µM, the TGI [2] was 45.7 µM and the TGI [3] was > 100 µM. The TGI [4] was > 100 µM, the TGI [6] was > 100 µM and the TGI [7] was > 100 µM. For the same molecule, the TGI [8] was > 100 µM, the TGI [9] was > 100 µM and the TGI [10] was > 100 µM. For the same molecule, the TGI [11] was > 100 µM, the TGI [12] was > 100 µM and the TGI [13] was > 100 µM. For the same molecule, the TGI [14] was > 100 µM, the TGI [15] was > 100 µM and the TGI [16] was > 100 µM. For the same molecule, the TGI [57] was > 100 µM, the TGI [17] was 93.1 µM and the TGI [18] was > 100 µM. For the same molecule, the TGI [19] was > 100 µM, the TGI [20] was 35 µM and the TGI [21] was > 100 µM. For the same molecule, the TGI [22] was > 100 µM, the TGI [23] was 68.9 µM and the TGI [24] was > 100 µM. The TGI [25] was > 100 µM, the TGI [26] was > 100 µM and the TGI [27] was 42.3 µM. The TGI [28] was > 100 µM, the TGI [29] was > 100 µM and the TGI [31] was > 100 µM. The TGI [32] was > 100 µM, the TGI [33] was > 100 µM and the TGI [34] was > 100 µM. For the same molecule, the TGI [35] was > 100 µM, the TGI [36] was > 100 µM and the TGI [37] was > 100 µM. For the same molecule, the TGI [38] was 72.1 µM, the TGI [39] was 31.4 µM and the TGI [40] was > 100 µM. The TGI [41] was > 100 µM, the TGI [42] was > 100 µM and the TGI [43] was > 100 µM. For the same molecule, the TGI [44] was 34.8 µM, the TGI [45] was > 100 µM and the TGI [46] was > 100 µM. The TGI [47] was > 100 µM, the TGI [48] was > 100 µM and the TGI [49] was > 100 µM. For the same molecule, the TGI [58] was > 100 µM, the TGI [50] was > 100 µM and the TGI [51] was > 100 µM. For the same molecule, the TGI [52] was > 100 µM, the TGI [53] was > 100 µM and the TGI [54] was 42.7 µM. The TGI [55] was > 100 µM and the TGI [56] was > 100 µM.

For `CC1=NCC[N+]1(CCc1ccccc1)Cc1ccccc1` (stereo unspecified), the TGI [1] was > 100 µM, the TGI [2] was > 100 µM and the TGI [4] was > 100 µM. For the same molecule, the TGI [5] was > 100 µM, the TGI [6] was > 100 µM and the TGI [7] was > 100 µM. For the same molecule, the TGI [8] was 21.5 µM, the TGI [10] was > 100 µM and the TGI [11] was > 100 µM. For the same molecule, the TGI [12] was > 100 µM, the TGI [13] was > 100 µM and the TGI [14] was > 100 µM. For the same molecule, the TGI [15] was > 100 µM, the TGI [16] was > 100 µM and the TGI [57] was > 100 µM. For the same molecule, the TGI [17] was 68.7 µM, the TGI [18] was > 100 µM and the TGI [19] was 91.7 µM. The TGI [20] was > 100 µM, the TGI [21] was > 100 µM and the TGI [22] was > 100 µM. For the same molecule, the TGI [23] was > 100 µM, the TGI [24] was 69.8 µM and the TGI [25] was > 100 µM. For the same molecule, the TGI [26] was 31 µM, the TGI [27] was > 100 µM and the TGI [28] was 91 µM. For the same molecule, the TGI [29] was > 100 µM, the TGI [30] was > 100 µM and the TGI [31] was > 100 µM. The TGI [32] was > 100 µM, the TGI [33] was > 100 µM and the TGI [34] was > 100 µM. The TGI [35] was > 100 µM, the TGI [36] was > 100 µM and the TGI [37] was > 100 µM. For the same molecule, the TGI [38] was 49.8 µM, the TGI [39] was > 100 µM and the TGI [40] was > 100 µM. The TGI [41] was > 100 µM, the TGI [42] was 72.3 µM and the TGI [43] was > 100 µM. For the same molecule, the TGI [44] was > 100 µM, the TGI [46] was > 100 µM and the TGI [47] was > 100 µM. For the same molecule, the TGI [48] was > 100 µM, the TGI [49] was > 100 µM and the TGI [58] was > 100 µM. For the same molecule, the TGI [51] was > 100 µM, the TGI [52] was > 100 µM and the TGI [53] was > 100 µM. For the same molecule, the TGI [54] was > 100 µM, the TGI [59] was > 100 µM and the TGI [56] was > 100 µM.
